In the assay the test system is mammary estrogen-regulated genes (lactoferrin and progesterone receptor). Description: Expression of estrogen-regulated genes in mammary tissue of ovariectomized FVB/n mice. Format: in vivo, mouse. The following applies: FVB/n OVX mice, n=4, data not shown; versus control (vehicle) and melatonin alone. The source says: Previous studies with melatonin or tamoxifen alone were done in MMTV/neu mice. MMTV/neu mice spontaneously develop HER2/neu mammary cancer beginning at 5 months of […] and have a maximal incidence of >90% after 14 months of age. In this mouse model, tamoxifen and melatonin alone can influence mammary tumor development, growth and/or metastatic progression.

Regarding `CC/C(=C(\c1ccccc1)c1ccc(OCCN(C)C)cc1)c1ccccc1` [tamoxifen], the “progesterone receptor (PR) RNA levels in mammary tissue” value is reported as “significantly different than the control”.
